Results on 7 compounds are retold here after patent US5387419A, “System for controlled release of antiarrhythmic agents” (The University of Michigan, priority 1993, dated 1995).

Series [1] has as its system Ventricular tachycardia (VT) induced by rapid ventricular pacing. The experiment in a line: In vivo ventricular pacing study: conversion of ventricular tachycardia induced by rapid ventricular pacing. Also on record: species or system dog (male mongrel dogs). The settings on record: for Peak % Increase in VT Threshold / Conversion: mean ± standard error; for Peak % Increase in VT Threshold: same patches: lidocaine/Tecoflex, procainamide/Thyomer, amiodarone/Thyomer with polyethyleneglycol, NiCl2/Thyomer; for Effectiveness in converting ventricular tachycardia: in words, controlled release dosage form, epicardial; for Conversion: patches: lidocaine 28% in Tecoflex (N 16), procainamide 30% in Thyomer (7), amiodarone 30% in Thyomer with 10% polyethyleneglycol 200 (3), NiCl2 50% in Thyomer (4). The source says:
Ventricular tachycardia was induced and maintained by rapid ventricular pacing in an open-chest dog model using male mongrel dogs (10-15 kg). Three sets of bipolar epicardial electrodes were placed at 2 cm distances from the left ventricular apex toward the base of the heart. A Grass Model 8 stimulator (Grass Instruments, delivered continuous electrical stimulation as 2-msec square wave impulses with a 50-msec cycle length via a stimulus isolation unit (Bloom Associates, Reading, Pa.). The stimulus isolation unit also repeatedly monitored the pacing current thresholds. After induction of ventricular tachycardia, a controlled release dosage form of the present invention in the shape of a patch of the drug-loaded polymeric matrix material was placed adjacent to the stimulating electrode. The time required to convert the ventricular tachycardia to sinus rhythm was measured, as well as the time course of the quantitative change for sustaining the induction of ventricular tachycardia. The effects of controlled release were monitored for up to 4 hours after conversion to normal sinus rhythm.
All other dosage forms were fabricated by dissolving the therapeutic agent in dimethylacetamide at a concentration of 100 mg/ml therapeutic agent. This solution was further dissolved in a 10% solution of a Thyomer polyurethane and solvent cast into a 0.2 mm films. […] Controls comprised patches of each polymeric matrix material.

For series [2] the following is noted: oral; cited from earlier work.
The subject of series [3] is Ischemia-induced ventricular tachycardia. The experiment in a line: In vivo acute ischemia-induced ventricular tachycardia study. Also on record: species or system dog. As to conditions: for VT (per/minute): number of VT episodes per minute following epicardial placement: average for N dogs, patches (dose mg/kg/2hr): lidocaine 28% Tecoflex (0.23, N 5), propranolol 30% MPU-5 (0.14, 6), D-sotalol 30% MPU-5 (0.20, 9), verapamil 30% MPU-5 (0.30, 11); for Effectiveness against ischemia-induced ventricular tachycardia: in words, epicardial controlled release. As for the experimental part:
Controlled release dosage forms of the present invention have been successful in preventing ischemia-induced ventricular tachycardia in a canine model. Ventricular occlusions of the left anterior descending coronary artery of a dog were produced by exposing and isolating the artery in a dog under anesthesia. A snare with a sliding closure was placed around the artery. Ventricular tachycardia was produced by closing the snare for 10 minutes to shut off the blood supply to left ventricle. The snare was opened for an hour, and then the snare was closed for 10 minutes. This procedure can be repeated up six times and simulates a heart attack. Ventricular tachycardia (VT) was defined as the occurrence of 3 or more sequential ventricular premature beats. The efficacy of various controlled release dosage forms of the present invention were documented by continuous recording of the electrophysiologic data on a Hewlett Packard Physiologic Records, and an 8-channel analogue tape deck (Hewlett Packard, Philadelphia, Pa.).
The data is expressed as the average for the number N of dogs per group. Episodes of VT were paced at one per minutes.

For series [4], the system named is normal cardiac function. Put plainly: Other studies: effects of transmyocardial lidocaine on normal cardiac function. Format: in vivo. The settings on record: lidocaine administered by transmyocardial route.

As for `CCCCc1oc2ccccc2c1C(=O)c1cc(I)c(OCCN(CC)CC)c(I)c1` [Amiodarone, amiodarone], in series [1], the “Peak % Increase in VT Threshold” value stood at 36.1 ± 12.7%. Also, in series [2], the “Severe side effects, share of patients” value was “over 70%”.
For `CC(C)NC[C@@H](O)c1ccc(NS(C)(=O)=O)cc1` [D-Sotalol, d-sotalol], in series [3], the “VT (per/minute): number of VT episodes per minute following epicardial placement” value (“VT (per/minute): number of VT episodes” below) was “.046 ± .11 per/minute” and the “Effectiveness against ischemia-induced ventricular tachycardia” value is listed as “the most effective for arrhythmias due to acute myocardial ischemia”.
With `CCN(CC)CC(=O)Nc1c(C)cccc1C` [Lidocaine, lidocaine], the “VT (per/minute): number of VT episodes” value in series [3] is listed as 0.6 ± 0.2 per/minute. In series [1], the “Peak % Increase in VT Threshold” value came to 367.7 ± 183.1%. Besides, in series [4], the “Other effects on normal cardiac function” value is “no other significant effects on normal cardiac function”.
On to `[Cl][Ni][Cl]` [NiCl2, nickel chloride], for which, in series [1], the “Effectiveness in converting ventricular tachycardia” value was “effective to convert tachycardia to normal sinus rhythm”, the “Conversion” value stood at 2.08 ± 1.71 min and the “Peak % Increase in VT Threshold” value is recorded as 122.6 ± 101.3%.
For the compound `CCN(CC)CCNC(=O)c1ccc(N)cc1` [Procainamide, procainamide], in series [1], the “Effectiveness in converting ventricular tachycardia” value is reported as “effective in converting ventricular tachycardia”, the “Conversion” value was 4.05 ± 3.15 min and the “Peak % Increase in VT Threshold” value stood at 206.7 ± 172.6%.
As for `CC(C)NCC(O)COc1cccc2ccccc12` (stereo not shown) [Propranolol, propranolol], the “VT (per/minute): number of VT episodes” value in series [3] is listed as 1.22 ± .12 per/minute.
On to `COc1ccc(CCN(C)CCCC(C#N)(c2ccc(OC)c(OC)c2)C(C)C)cc1OC` (stereo not shown) [Verapamil, verapamil], for which, in series [3], the “VT (per/minute): number of VT episodes” value is 0.10 ± .03 per/minute and the “Effectiveness against ischemia-induced ventricular tachycardia” value is reported as “the most effective for arrhythmias due to acute myocardial ischemia”.
